# Source: publication PMC11356900, “Synthesis, Structural Properties and Biological Activities of Novel Hydrazones of 2-, 3-, 4-Iodobenzoic Acid” (Molecules, 2024)
# Key:
# Gram-positive bacteria = assay: Broth microdilution, summary over reference Gram-positive bacteria; assay type: cell-based
# From the text: (§1) Procedures of in vitro antimicrobial assays are described in Supplementary Materials.
# (§2) 2. Microbiology – in vitro antimicrobial activity assays […]
# (§3) using the broth microdilution method according to the European Committee on Antimicrobial Susceptibility Testing (EUCAST) and Clinical and Laboratory Standards Institute guidelines against a panel of reference and clinical or saprophytic strains of mi croorganisms, including the Gram-positive bacteria: Staphylococcus aureus ATCC 43300 (Methi-cillin Resistant S. aureus – MRSA), Staphylococcus aureus ATCC 29213 (Methicillin Susceptible S. aureus – MSSA), Staph-ylococcus epidermidis ATCC 12228, Micrococcus luteus ATCC 10240, Bacillus subtilis ATCC 6633 and Bacillus cereus ATCC 10876), Gram-negative bacteria: Bordetella bronchiseptica ATCC 4617, Escherichia coli ATCC 25922, Klebsiella pneumoniae ATCC 13883, Proteus mirabilis ATCC 12453, Salmonella typhimurium ATCC 14028 and Pseudomonas aeruginosa ATCC 9027, and fungi belonging to yeasts: Candida albicans ATCC 10231, Candida albicans ATCC 2091, Candida parapsilosis ATCC 22019, Candida glabrata ATCC 90030 and Candida krusei ATCC 14243. The microorganisms belonging to ATCC originated from American Type Culture Collection, routinely used for the evaluation of antimicrobials. All the used microbial cultures were first subcultured on nutrient agar or Sabouraud agar at 35°C for 18-24 h or 30°C for 24-48 h for bacteria […]
# (§4) The surface of Mueller-Hinton agar (for bacteria) and RPMI 1640 with MOPS (for fungi) were inoculated with the suspensions of bacterial or fungal species. Microbial suspensions were prepared in sterile saline with an optical density of McFarland standard scale 0.5. The samples containing the compounds were dissolved in dimethyl sulfoxide (DMSO).
# (§5) Furthermore, the bacterial and fungal suspensions put onto the Petri dishes with solid media containing 2 mg/mL of the tested compounds followed were incubated at 37°C for 24h and 30°C for 48h for bacteria and fungi, respectively.
# (§6) The inhibition of microbial growth was estimated comparing with a control culture prepared without any tested sam- […]
# (§7) antifungal compounds, respectively.
# (§8) Subsequently, MIC (Minimal Inhibitory Concentration) of the compounds was examined by the microdilution broth method, using their two-fold dilutions in Mueller-Hinton broth (for bacteria) and RPMI 1640 broth with MOPS (for fungi) prepared in the 96-well polystyrene plates. The final concentrations of the compounds ranged from 1000 to 0.488 µg/mL. Microbial suspensions were prepared in 0.85% NaCl with an optical density of 0.5 McFarland standard. Next each bacterial or fungal suspension was added per each well containing broth and various concentrations of the exam-ined compounds. After incubation, the MIC was assessed spectrophotometrically as the lowest concentration of the […]
# (§9) Appropriate DMSO, growth and sterile controls were carried out. The medium with no tested substances was used as a control The MBC (Minimal Bactericidal Concentration) and MFC (Minimal Fungicidal Concentration) are defined as the lowest concentration of the compounds that is required to kill a particular bacterial or fungal species. The MBC/MFC was determined by removing the culture used for the MIC determination from each well and spotted onto the appro-priate agar medium. The plates were incubated under appropriate conditions for bacteria and fungi. The lowest com-pounds concentration with no visible growth observed was assessed as a bactericidal/fungicidal concentration. All the experiments were repeated three times and the representative data are presented.
# (§10) 1. European Committee for Antimicrobial Susceptibility Testing (EUCAST) Determination of minimum inhibitory con-centrations (MICs) of antibacterial agents by broth dilution. EUCAST discussion document E. Dis 5.1. Clin. Microbiol.
# (§11) 2. Clinical and Laboratory Standards Institute. Reference method for broth dilution antifungal susceptibility testing of […]
# [1] = test system: Bacillus cereus ATCC 10876; assay: Broth microdilution MIC/MBC
# [2] = test system: Staphylococcus epidermidis ATCC 12228; assay: Broth microdilution MIC/MBC; settings: ATCC12228
# [3] = test system: Escherichia coli ATCC 25922; assay: Broth microdilution MIC/MBC; settings: ATCC25922
# [4] = test system: Micrococcus luteus ATCC 10240; assay: Broth microdilution MIC/MBC
# [5] = test system: Staphylococcus aureus ATCC 43300; assay: Broth microdilution MIC/MBC; settings: ATCC43300 / MRSA
# [6] = test system: Bacillus subtilis ATCC 6633; assay: Broth microdilution MIC/MBC; settings: ATCC6633
# [7] = test system: Klebsiella pneumoniae ATCC 13883; assay: Broth microdilution MIC/MBC; settings: ATCC13883
# [8] = test system: Staphylococcus aureus ATCC 25923; assay: Broth microdilution MIC/MBC
# [9] = test system: Candida albicans ATCC 10231; assay: Broth microdilution MIC/MFC; assay type: cell-based; settings: for MIC: ATCC10231, read-out: MIC
# From the text: as §1, §2, §3, §4, §5, §6, §7, §8, §9, §10, §11
# [10] = test system: Candida albicans ATCC 2091; assay: Broth microdilution MIC/MFC; assay type: cell-based; settings: for MIC: ATCC2091, read-out: MIC
# From the text: as §1, §2, §3, §4, §5, §6, §7, §8, §9, §10, §11
# [11] = test system: Candida krusei ATCC 14243; assay: Broth microdilution MIC/MFC; assay type: cell-based; settings: Pichia kudriavzevii, ATCC14243, read-out: MIC
# From the text: as §1, §2, §3, §4, §5, §6, §7, §8, §9, §10, §11
# [12] = test system: Candida glabrata ATCC 90030; assay: Broth microdilution MIC/MFC; assay type: cell-based; settings: Nakaseomyces glabratus; for MIC: ATCC90030, read-out: MIC
# From the text: as §1, §2, §3, §4, §5, §6, §7, §8, §9, §10, §11
# [13] = test system: Candida parapsilosis ATCC 22019; assay: Broth microdilution MIC/MFC; assay type: cell-based; settings: Lodderomyces parapsilosis; for MIC: ATCC22019, read-out: MIC; for MFC: ATCC22019, read-out: MFC
# From the text: as §1, §2, §3, §4, §5, §6, §7, §8, §9, §10, §11
# [14] = test system: Pseudomonas aeruginosa ATCC 9027; assay: Broth microdilution MIC/MBC; settings: ATCC9027
# [15] = test system: Staphylococcus aureus ATCC 29213; assay: Broth microdilution MIC/MBC; settings: ATCC29213
# [16] = test system: Salmonella typhimurium ATCC 14028; assay: Broth microdilution MIC/MBC; settings: Salmonella enterica
# [17] = test system: Bordetella bronchiseptica ATCC 4617; assay: Broth microdilution MIC/MBC; settings: ATCC4617
# [18] = test system: Proteus mirabilis ATCC 12453; assay: Broth microdilution MIC/MBC; settings: ATCC12453
# [19] = Staphylococcus aureus, ATCC25923
SMILES,"MIC ([1]; Bacillus cereus, ATCC10876) [µg/mL]",MBC [2] [µg/mL],MIC [2] [µg/mL],MIC [3] [µg/mL],"MBC ([4]; Micrococcus luteus, ATCC10240) [µg/mL]","MIC ([4]; Micrococcus luteus, ATCC10240) [µg/mL]",MIC [5] [µg/mL],MBC [6] [µg/mL],MIC [6] [µg/mL],MIC [7] [µg/mL],"MIC [8, 19] [µg/mL]",MIC [9] [µg/mL],MIC [10] [µg/mL],MIC [11] [µg/mL],MIC [12] [µg/mL],MIC [13] [µg/mL],MIC [14] [µg/mL],MIC [16] [µg/mL],MIC [17] [µg/mL],MIC [18] [µg/mL],further results
"O=C(N/N=C/c1cc(Cl)cc(Cl)c1O)c1cccc(I)c1 [Compound 17, N-[(3,5-dichloro-2-hydroxyphenyl)methylidene]-3-iodobenzohydrazide]",15.6,62.5,15.6,> 1000,15.6,15.6,15.6,15.6,7.81,> 1000,31.2,> 1000,> 1000,> 1000,> 1000,> 1000,> 1000,> 1000,> 1000,> 1000,"MIC (Gram-positive bacteria): 7.81 to 31.2 µg/mL; MBC ([1]; Bacillus cereus, ATCC10876): 15.6 µg/mL; MBC [5]: 15.6 µg/mL; MBC [8, 19]: 31.2 µg/mL; MBC [15]: 15.6 µg/mL; MIC [15]: 15.6 µg/mL; melting point: 210 to 212 °C"
"O=C(N/N=C/c1cc(Cl)cc(Cl)c1O)c1ccc(I)cc1 [Compound 24, N-[(3,5-dichloro-2-hydroxyphenyl)methylidene]-4-iodobenzohydrazide]",> 1000,,> 1000,> 1000,> 1000,500,> 1000,> 1000,500,> 1000,> 1000,500,1000,> 1000,250,1000,> 1000,> 1000,> 1000,> 1000,"MFC ([9]; ATCC10231, read-out: MFC): > 1000 µg/mL; MFC ([10]; ATCC2091, read-out: MFC): > 1000 µg/mL; MFC ([12]; ATCC90030, read-out: MFC): > 1000 µg/mL; MFC [13]: > 1000 µg/mL; MBC [15]: > 2000 µg/mL; MIC [15]: 1000 µg/mL; melting point: 281 to 284 °C"
"CCOc1cccc(/C=N/NC(=O)c2ccc(I)cc2)c1O [Compound 25, N-[(3-ethoxy-2-hydroxyphenyl)methylidene]-4-iodobenzohydrazide]",> 1000,> 1000,1000,> 1000,62.5,31.2,> 1000,,> 1000,> 1000,> 1000,> 1000,> 1000,> 1000,> 1000,250,> 1000,> 1000,> 1000,> 1000,MFC [13]: > 1000 µg/mL; MIC [15]: > 1000 µg/mL; melting point: 200 to 207 °C
"O=C1CN(/N=C/c2ccc([N+](=O)[O-])o2)C(=O)N1 [NIT, nitrofurantoin, reference compound]",7.81,7.81,3.91,7.81,62.5,62.5,7.81,3.91,3.91,15.6,15.6,,,,,,,31.2,125,62.5,"MBC ([1]; Bacillus cereus ATCC 10876): 15.62 µg/mL; MBC ([1]; Bacillus cereus, ATCC10876): 15.6 µg/mL; MIC ([4]; Micrococcus luteus ATCC 10240): 62.5 (62.5) µg/mL; MIC ([8]; Staphylococcus aureus ATCC 25923): 15.62 (15.62) µg/mL; MBC [8, 19]: 15.6 µg/mL"
